Literature values, collected in US12427145B2, “Controlled release pharmaceutical composition of Selexipag or it's active metabolite” (Innovate Therapeutics LLC, priority 2019, dated 2025).
Like-named read-outs stand apart in the source and are kept apart here.

Legend:
[1] = oral immediate release dosage form, out of 575 subjects
[2] = fasting condition
[3] = study AC-065A303, 52 subjects out of 218 subjects

SMILES: CC(C)N(CCCCOCC(=O)NS(C)(=O)=O)c1cnc(-c2ccccc2)c(-c2ccccc2)n1 [Selexipag]
- Arthralgia, subjects [1]: 11%
- Diarrhea, subjects [1]: 42%
- Flushing, subjects [1]: 12%
- Headache, subjects [1]: 65%
- Jaw pain, subjects [1]: 26%
- Myalgia, subjects [1]: 16%
- Nausea, subjects [1]: 33%
- Pain in Extremity, subjects [1]: 17%
- Rash, subjects [1]: 11%
- Vomiting, subjects [1]: 18%
- subjects reporting Headache ([2]; 200 μg Selexipag, 1 out of 6 subjects): 17%
- subjects reporting Headache ([2]; 600 μg Selexipag, 2 out of 6 subjects): 33%
- subjects reporting Headache ([2]; 800 μg Selexipag, 5 out of 6 subjects): 83%
- subjects with at least 1 adverse event leading to discontinuation of study drug [3]: 24%
